# Where two headings read alike, the source gives them in different places.
# Columns and labels:
# in vitro = assay type: cell-based; conditions: human; Hep G 2.2.15 cells, MTT, day 3 post-dosing
# Method: Hep G 2.2.15 cells were inoculated in a 96-well plate (with cell number being 5.5×10^4) to continually cultivate for 3 days, new culture solutions containing different concentrations of drugs were added, and 3 wells were provided in parallel; at day 3 post-dosing, MTT was added until 7.5 mg/ml, and continued to cultivate for 2 hours, the supernate was discarded, isopropanol containing 10% […] was added, 120 μl/well, and 0.4 μl/well was further added.
# [1] = test system: liver damage in mice caused by CCl4; assay type: in vivo, Kunmin mice; conditions: serum, CCl4 model, 0.2 mmol oral twice, 24 hours after second administration
# Method: Kunmin mice (20 g) were grouped randomly (8/group). 0.2 mmol of a compound to be tested was orally administered; after 1 hour post-dosing, a 0.1% peanut oil solution of CCl4 was subcutaneously injected (10 mL/kg), to prepare a liver damage model; the normal saline was injected as a normal control group. After modeling for 12 hours, 0.2 mmol of the compound to be tested was orally administrated again. After 24 hours from the second administration, blood samples were collected to take serum specimen so as to determine ALT, AST.
# [2] = test system: liver damage in mice caused by D-aminogalactose; assay type: in vivo, Kunmin mice; conditions: serum, D-aminogalactose 750 mg/kg model, 0.2 mmol oral twice, 24 hours after second administration
# Method: Kunmin mice (20 g) were grouped randomly (8/group). 0.2 mmol of a compound to be tested was orally administered; after 2 hours post-dosing, D-aminogalactose was intraperitoneally injected at a dose of 750 mg/kg to prepare a liver damage model, and the normal saline was subcutaneously injected as a normal control group. After modeling for 12 hours, 0.2 mmol of the compound to be tested was orally administrated again. After 24 hours from the second administration, blood samples were collected to take serum specimen so as to determine ALT, AST.
# DHBV = assay: animal or person; assay type: in vivo, sheldrakes; conditions: Duck hepatitis B virus, po, 336 h, serum DHBV DNA; for inhibition in vivo at 20 mg/kg: 20 mg/kg intragastric once a day for 14 days; for inhibition in vivo at 10 mg/kg: 10 mg/kg intragastric once a day for 14 days
# Method: The sheldrakes infected by vertical transmission and being positive in DHBV DNA detection were grouped randomly, 5/group. Water and different doses of the compound to be tested were intragastrically administrated, respectively, once a day, for 14 days. Venous blood samples were collected pre-dosing, at day 14 of dosing and at day 7 after drug withdrawal, the serum DHBV DNA content was measured using external standard TaqMan real-time fluorescence PCR method, and the inhibition ratio was calculated, as compared to the solvent group.
# [3] = read-out: Inhibition ratio (%) Day 14 of dosing
# [4] = read-out: Inhibition ratio (%) day 7 after drug withdrawal
smiles,measurement,setting,value
"C[C@H](Cn1cnc2c(N)ncnc21)OCP(=O)(Oc1cccc2c1OCO2)Oc1cccc2c1OCO2 [Compound I5, 9-[(R)-2-[[bis-((benzo[1,3]dioxolan-4-yl)-oxyl)-phosphonyl]-methoxyl]-propyl]-adenine]",CC50 at 3 days,in vitro,> 200 µM
"COc1ccc(Sc2nc(N)nc3c2ncn3CCOCP(=O)(Oc2cccc3c2OCO3)Oc2cccc3c2OCO3)cc1 [Compound I7, 2-amino-6-(4-methoxylphenyl)thio-9-[[[bis-((benzo[1,3]dioxolan-4-yl)-oxyl)-phosphonyl]-methoxyl]-ethyl]-purine]",CC50 at 3 days,in vitro,> 200 µM
"Cc1cc(OCP(=O)(Oc2ccc3c(c2)OCO3)Oc2ccc3c(c2)OCO3)cc(C)c1Cc1ccc(O)c(C(C)C)c1 [Compound I9, bis-(benzo[1,3]dioxolan-5-yl) [(3,5-dimethyl-4-(4′-hydroxyl-3′-isopropylbenzyl)phenoxyl)-methyl]-phosphonate]",CC50 at 3 days,in vitro,> 200 µM
"CC(C)Cc1sc(N)nc1-c1ccc(P(=O)(Oc2ccc3c(c2)OCO3)Oc2ccc3c(c2)OCO3)o1 [Compound I10, bis-(benzo[1,3]dioxolan-5-yl) [5-[2-amino-5-(2-methylpropyl)-thiazol-4-yl]-furan-2-yl]-phosphonate]",CC50 at 3 days,in vitro,> 200 µM
"C=C1[C@H](COP(=O)(Oc2ccc3c(c2)OCO3)Oc2ccc3c(c2)OCO3)[C@@H](O)C[C@@H]1n1cnc2c(OC)nc(N)nc21 [Compound I16, 2-amino-6-methoxyl-9-[(1S,3R,4S)-4-hydroxyl-3-(bis-(((benzo[1,3]dioxolan-5-yl)-oxyl)-phosphoryl)-oxymethyl)-2-methylenecyclopentyl]-purine]",CC50 at 3 days,in vitro,> 200 µM
"C[C@@]1(F)[C@H](O)[C@@H](COP(=O)(Oc2ccc3c(c2)OCO3)Oc2ccc3c(c2)OCO3)O[C@H]1n1ccc(=O)[nH]c1=O [Compound I17, 5′-O-[bis-((benzo[1,3]dioxolan-5-yl)-oxyl)-phosphoryl]-β-D-2′-deoxy-2′-α-fluoro-2′-β-C-methyl uridine]",CC50 at 3 days,in vitro,> 200 µM
CCOC(=O)[C@@H](C)NP(=O)(CO[C@H](C)Cn1cnc2c(N)ncnc21)Oc1ccc2c(c1)OCO2 (stereo partly shown) [Compound I20],CC50 at 3 days,in vitro,179 µM
CC(C)OC(=O)[C@@H](C)NP(=O)(CO[C@H](C)Cn1cnc2c(N)ncnc21)Oc1ccc2c(c1)OCO2 (stereo partly shown) [Compound I21],CC50 at 3 days,in vitro,> 200 µM
CC(C)C[C@@H](NP(=O)(CO[C@H](C)Cn1cnc2c(N)ncnc21)Oc1ccc2c(c1)OCO2)C(=O)OC(C)C (stereo partly shown) [Compound I23],CC50 at 3 days,in vitro,> 200 µM
C[C@H](Cn1cnc2c(N)ncnc21)OCP(=O)(N[C@H](C)C(=O)OC1CCCCC1)Oc1ccc2c(c1)OCO2 (stereo partly shown) [Compound I25],CC50 at 3 days,in vitro,> 200 µM
CCOC(=O)[C@H](C)N[P@](=O)(OC[C@H]1O[C@@H](n2ccc(=O)[nH]c2=O)[C@](C)(F)[C@@H]1O)Oc1ccc2c(c1)OCO2 [Compound I30],CC50,in vitro,> 200 µM
CC(C)OC(=O)[C@H](C)N[P@@](=O)(OC[C@H]1O[C@@H](n2ccc(=O)[nH]c2=O)[C@](C)(F)[C@@H]1O)Oc1ccc2c(c1)OCO2 [Compound I31-a],ALT,[1],507 U/L
same,AST,[1],446 U/L
same,ALT,[2],421 U/L
same,AST,[2],253 U/L
CC(C)OC(=O)[C@H](C)N[P@](=O)(OC[C@H]1O[C@@H](n2ccc(=O)[nH]c2=O)[C@](C)(F)[C@@H]1O)Oc1ccc2c(c1)OCO2 [Compound I31-b],ALT,[1],205 U/L
same,AST,[1],439 U/L
same,ALT,[2],375 U/L
same,AST,[2],751 U/L
CC(C)OC(=O)[C@H](C)NP(=O)(OC[C@H]1O[C@@H](n2ccc(=O)[nH]c2=O)[C@](C)(F)[C@@H]1O)Oc1ccc2c(c1)OCO2 (stereo partly shown) [Compound I31],CC50,in vitro,> 200 µM
C[C@H](N[P@](=O)(OC[C@H]1O[C@@H](n2ccc(=O)[nH]c2=O)[C@](C)(F)[C@@H]1O)Oc1ccc2c(c1)OCO2)C(=O)OC1CCCCC1 [Compound I32],CC50,in vitro,> 200 µM
CCOC(=O)[C@H](C)N[P@](=O)(OC[C@H]1O[C@@H](n2cnc3c(OC)nc(N)nc32)[C@](C)(F)[C@@H]1O)Oc1ccc2c(c1)OCO2 [Compound I33],CC50,in vitro,> 200 µM
COc1nc(N)nc2c1ncn2[C@@H]1O[C@H](CO[P@](=O)(N[C@@H](C)C(=O)OC(C)C)Oc2ccc3c(c2)OCO3)[C@@H](O)[C@@]1(C)F [Compound I34-a],ALT,[1],293 U/L
same,AST,[1],763 U/L
same,ALT,[2],131 U/L
same,AST,[2],282 U/L
COc1nc(N)nc2c1ncn2[C@@H]1O[C@H](CO[P@@](=O)(N[C@@H](C)C(=O)OC(C)C)Oc2ccc3c(c2)OCO3)[C@@H](O)[C@@]1(C)F [Compound I34-b],ALT,[1],289 U/L
same,AST,[1],536 U/L
same,ALT,[2],341 U/L
same,AST,[2],194 U/L
COc1nc(N)nc2c1ncn2[C@@H]1O[C@H](COP(=O)(N[C@@H](C)C(=O)OC(C)C)Oc2ccc3c(c2)OCO3)[C@@H](O)[C@@]1(C)F (stereo partly shown) [Compound I34],CC50,in vitro,> 200 µM
COc1nc(N)nc2c1ncn2[C@@H]1O[C@H](CO[P@@](=O)(N[C@@H](C)C(=O)OC2CCCCC2)Oc2ccc3c(c2)OCO3)[C@@H](O)[C@@]1(C)F [Compound I35],CC50,in vitro,> 200 µM
CC(C)OC(=O)[C@H](C)N[P@](=O)(OC[C@H]1O[C@@H](n2ccc(N)nc2=O)CS1)Oc1ccc2c(c1)OCO2 [Compound I36],CC50,in vitro,> 200 µM
same,ALT,[1],490 U/L
same,AST,[1],543 U/L
same,ALT,[2],187 U/L
same,AST,[2],113 U/L
same,inhibition in vivo at 20 mg/kg,DHBV; [3],92%
same,inhibition in vivo at 20 mg/kg,DHBV; [4],10.8%
COC(=O)[C@H](C)N[P@](=O)(OC[C@H]1O[C@@H](n2ccc(N)nc2=O)CS1)Oc1ccc2c(c1)OCO2 [Compound I37],CC50,in vitro,193 µM
same,inhibition in vivo at 10 mg/kg,DHBV; [3],75.2%
same,inhibition in vivo at 10 mg/kg,DHBV; [4],9.4%
"C=C1[C@H](COP(=O)(N[C@@H](C)C(=O)OC(C)C)Oc2cccc3c2OCO3)[C@@H](O)C[C@@H]1n1cnc2c(=O)[nH]c(N)nc21 (stereo partly drawn) [Compound I39, 9-[(1S,3R,4S)-4-hydroxyl-3-[(((benzo[1,3]dioxolan-4-yl)-oxyl)-1-isopropoxycarbonylethylamino-phosphoryl)-oxymethyl]-2-methylenecyclopentyl]-guanine]",CC50,in vitro,182 µM
COc1nc(N)nc2c1ncn2[C@@H]1O[C@H](COP(=O)(N[C@@H](C)C(=O)OC(C)C)Oc2cccc3c2OCO3)[C@@H](O)[C@@]1(C)F (stereo partly shown) [Compound I40],CC50,in vitro,> 200 µM
"CC(C)OC(=O)[C@H](C)N[P@](=O)(OC[C@H]1O[C@@H](n2ccc(=O)[nH]c2=O)[C@](C)(F)[C@@H]1O)Oc1ccccc1 [PSI-7977, 5′-[(S)-[[(S)-1-(isopropoxycarbonyl)-ethyl]-amino]-phenoxylphosphoryl]-β-D-2′-deoxy-2′-α-fluoro-2′-β-C-methyluridine, reference compound]",CC50,in vitro,178 µM
same,ALT,[1],2324 U/L
same,AST,[1],2538 U/L
same,ALT,[2],1079 U/L
same,AST,[2],1727 U/L
"COc1nc(N)nc2c1ncn2[C@@H]1O[C@H](CO[P@@](=O)(N[C@@H](C)C(=O)OC(C)C)Oc2ccccc2)[C@@H](O)[C@@]1(C)F [PSI-353661, reference compound]",CC50,in vitro,149 µM
same,ALT,[1],1669 U/L
same,AST,[1],2312 U/L
same,ALT,[2],1558 U/L
same,AST,[2],1027 U/L
"COC(=O)[C@@H](C)NP(=O)(OCCOCn1cnc2c(=O)[nH]c(N)nc21)Oc1ccccc1 (stereo partly shown) [i-3, reference compound]",CC50,in vitro,177 µM
same,ALT,[1],231 U/L
same,AST,[1],446 U/L
same,ALT,[2],1150 U/L
same,AST,[2],1419 U/L
same,inhibition in vivo at 20 mg/kg,DHBV; [3],56.6%
same,inhibition in vivo at 20 mg/kg,DHBV; [4],14.6%

# From patent publication US20160115186A1, “PHOSPHORIC ACID/PHOSPHONIC ACID DERIVATIVES AND MEDICINAL USES THEREOF” (priority 2013, published 2016)
